Test results: patent EP2084544B1, “STABLE STANDARDS FOR BNP IMMUNOASSAYS” (Hytest Ltd., priority 2006, dated 2011)

Test: Stability of BNP immunoreactivity of antigens incubated in pooled human citrate plasma, measured by sandwich immunofluorometric assay (MAbs 50E1 / 24C5-Eu)
Format: in vitro ADME
Text: Antigens used in the studies. The antigens used in the stability studies included synthetic BNP-32 (Bachem, Bubendorf, Switzerland, cat. no. H-9060.0500), synthetic BNP-32 (Peptide Institute, Osaka, Japan, cat. no. 4212-v), recombinant proBNP (expressed in E. coli, non-glycosylated, from Hytest Ltd., Turku, Finland, 8PRO8), recombinant proBNP (expressed in eukaryotic CHO (Chinese hamster) cells and, thus, glycosylated, as described herein), and recombinant proBNP (expressed in eukaryotic HEK (human) cells and, thus, glycosylated, as described herein).
Antigen solutions. An antigen matrix was prepared by pooling human citrate plasmas collected from healthy donors. Plasma was obtained from 15 healthy volunteers by vein puncture and mixed with 0.11 M sodium citrate tribasic in a ratio of 4:1. The crude serum:citrate was centrifuged for 30 minutes at 2000 rpm. Plasma was decanted, pooled and stored at -70°C until use. Antigen concentrations used in the studies were 6 ng/ml for recombinant proBNP expressed in CHO cells, 20 ng/ml for synthetic BNPs, 20 ng/ml for recombinant proBNP expressed in E. coli and 20 ng/ml for recombinant proBNP expressed in HEK cells. 0.1 % sodium azide was added to plasma as a preservative to prevent bacterial growth.
Incubation at 4°C and 25°C. Antigen solutions in human plasma were incubated for different time periods (up to 96 hours) at 4°C and 25°C. Aliquots were frozen and stored at -70°C until BNP immunoreactivity was measured.
Assays for BNP immunoreactivity. BNP immunoreactivity in the samples was determined by sandwich immunofluorometric assay utilizing two BNP-specific monoclonal antibodies (MAbs). […]
MAb 24C5 specifically recognized and bound to peptide 11-22 of the BNP sequence and was conjugated to stable Eu^3+ chelate using conventional techniques. […] Consequently, it can be used for the quantification of whole BNP immunoreactivity, comprising both BNP and proBNP.

SMILES: CC[C@H](C)[C@@H]1NC(=O)[C@H](CCCNC(=N)N)NC(=O)[C@H](CC(=O)O)NC(=O)[C@H](CCSC)NC(=O)[C@H](CCCCN)NC(=O)[C@H](CCCNC(=N)N)NC(=O)CNC(=O)[C@H](Cc2ccccc2)NC(=O)[C@@H](NC(=O)CNC(=O)[C@H](CO)NC(=O)CNC(=O)[C@H](CCC(N)=O)NC(=O)[C@@H](NC(=O)[C@H](CCSC)NC(=O)[C@H](CCCCN)NC(=O)[C@@H]2CCCN2C(=O)[C@@H](N)CO)C(C)C)CSSC[C@@H](C(=O)N[C@@H](CCCCN)C(=O)N[C@H](C(=O)N[C@@H](CC(C)C)C(=O)N[C@@H](CCCN=C(N)N)C(=O)N[C@@H](CCCN=C(N)N)C(=O)N[C@@H](Cc2cnc[nH]2)C(=O)O)C(C)C)NC(=O)CNC(=O)[C@H](CC(C)C)NC(=O)CNC(=O)[C@H](CO)NC(=O)[C@H](CO)NC(=O)[C@H](CO)NC(=O)[C@H](CO)NC1=O [Synthetic BNP-32]
- immunoreactivity detected after incubation (in words) (96 hours of incubation at 4°C): Almost no immunoreactivity
- immunoreactivity detected after incubation (in words) (96 hours of incubation at 25°C): Almost no immunoreactivity
- stability among the tested protein forms displaying BNP immunoreactivity (rank in words) (incubation up to 96 hours at 4°C and 25°C): worst stability
